This assay addresses T1, Active human recombinant ROCK II (N-terminal His6-tagged recombinant human ROCK-II residues 11-552) (Homo sapiens, UniProt O75116).
T1 construct: recombinant human ROCK-II residues 11-552; His6 (N); purchased Upstate Ltd., Dundee, UK
The assay can be described thus: Determination of Rho Kinase Inhibition (Caliper peptide phosphorylation assay). The class given is biochemical. Particulars: Fluorescein-AKRRRLSSLRA-COOH substrate and ATP, 60 min incubation at 32° C., respective form (salt or free base) obtained as in the examples. On the procedure:
Determination of Rho Kinase Inhibition
To measure Rho-kinase inhibition, IC50 values were determined according to the following protocol:
Active human recombinant ROCK II (N-terminal His6-tagged recombinant human ROCK-II residues 11-552) was purchased from Upstate Ltd., Dundee, UK. The peptide substrate, Fluorescein-AKRRRLSSLRA-COOH, was obtained from JPT Peptide Technologies, Berlin, Germany. Adenosine-5′-triphosphate (ATP), bovine serum albumine (BSA), dimethylsulphoxide (DMSO), 4-(2-hydroxyethyl)piperazine-1-ethanesulfonic acid (Hepes), Brij-35 and dithiothreitol (DTT) were purchased from Sigma-Aldrich, Munich, Germany. Tris(hydroxymethyl)-aminomethane (Tris), magnesium chloride, NaOH, 1 M HCl and EDTA were obtained from Merck Biosciences, Darmstadt, Germany. “Complete” protease inhibitor was from Roche Diagnostics, Mannheim, Germany.
Test compounds were diluted to the appropriate concentrations in buffer 1 (25 mM Tris-HCl, pH 7.4, 5 mM MgCl2, 2 mM DTT, 0.02% (w/v) BSA and 3% DMSO). The ROCK II enzyme was diluted to a concentration of 100 ng/ml in buffer 2 (25 mM Tris-HCl, pH 7.4, 5 mM MgCl2, 2 mM DTT and 0.02% (w/v) BSA). The peptide substrate and ATP were diluted to concentrations of 3 μM and 120 μM, respectively, in the buffer 2. 2 μl of the compound solution were mixed with 2 μl of the diluted enzyme in a 384-well small volume microtiter plate (Greiner, Bio-One, Frickenhausen, Germany), and the kinase reaction was initiated by addition of 2 μl of the solution containing peptide substrate and ATP. After 60 min incubation at 32° C., the reaction was stopped by addition of 20 μl of a solution containing 100 mM Hepes-NaOH, pH 7.4, 0.015% (v/v) Brij-35, 45 mM EDTA and 0.227% chip coating reagent 1 (Caliper Lifescience Inc, Hopkinton, Mass.). Phosphorylation of the substrate peptide was then detected on a Caliper 3000 instrument essentially as described by Pommereau et al. (J. Biomol. Screening 2004, 9(5), 409-416). Separation conditions were as follows: Pressure—1.3 psi, upstream voltage—1562 V, downstream voltage—500 V, sample sip time 200 ms. Positive controls (buffer 1 instead of compound) and negative controls (buffer 1 instead of compound and buffer 2 instead of ROCK II) were run in parallel on each plate.
The following products/compounds were tested in said assay by using the respective form (salt or free base) obtained as in the examples described above and the following activities were measured.

T1 sequence (O75116 11-552): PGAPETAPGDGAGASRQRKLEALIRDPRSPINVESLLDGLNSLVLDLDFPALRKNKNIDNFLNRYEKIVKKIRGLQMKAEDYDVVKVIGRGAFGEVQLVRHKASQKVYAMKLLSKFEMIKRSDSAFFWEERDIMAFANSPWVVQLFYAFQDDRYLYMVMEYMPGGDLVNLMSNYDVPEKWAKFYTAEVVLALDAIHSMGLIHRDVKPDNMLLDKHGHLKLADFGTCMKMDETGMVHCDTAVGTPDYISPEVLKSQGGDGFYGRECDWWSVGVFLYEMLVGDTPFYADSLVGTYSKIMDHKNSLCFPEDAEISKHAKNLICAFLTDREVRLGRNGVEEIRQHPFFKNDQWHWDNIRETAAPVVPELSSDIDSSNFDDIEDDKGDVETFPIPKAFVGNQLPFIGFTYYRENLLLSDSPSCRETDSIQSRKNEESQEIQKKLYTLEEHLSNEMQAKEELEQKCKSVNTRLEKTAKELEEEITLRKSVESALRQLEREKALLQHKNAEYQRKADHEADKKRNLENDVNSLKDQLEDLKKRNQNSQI

Take `CN1CCN([C@H]2CC[C@@H](Oc3cc4cc[nH]c(=O)c4cc3Cl)CC2)CC1` [Compound 22, 7-Chloro-6-[4-(4-methyl-piperazin-1-yl)-cyclohexyloxy]-2H-isoquinolin-1-one]: the IC50 – broadly, the concentration at which inhibition is half-maximal – is no more than 1000 nM.
For `O=C(CCC1CCNCC1)N[C@H]1CC[C@@H](Oc2cc3cc[nH]c(=O)c3cc2Cl)CC1` [Compound 30, N-[4-(7-Chloro-1-oxo-1,2-dihydro-isoquinolin-6-yloxy)-cis-cyclohexyl]-3-piperidin-4-yl-propionamide], the IC50 was no more than 1000 nM.
Turning to `Cc1cc2c(=O)[nH]ccc2cc1O[C@H]1CC[C@H](NC(=O)CCC2CCNCC2)CC1` [Compound 28, N-[4-(7-Methyl-1-oxo-1,2-dihydro-isoquinolin-6-yloxy)-trans-cyclohexyl]-3-piperidin-4-yl-propionamide], the IC50 was 1000 to 10000 nM.
The figure for `O=c1[nH]ccc2cc(O[C@H]3CC[C@@H](N4CCCC4)CC3)c(Cl)cc12` [Compound 20, 7-Chloro-6-(4-pyrrolidin-1-yl-cyclohexyloxy)-2H-isoquinolin-1-one] is no more than 1000 nM.
In the case of `O=c1[nH]ccc2cc(OC3CCC(N4CCOCC4)CC3)c(Cl)cc12` (mixture of isomers) [Compound 18, 7-Chloro-6-(4-morpholin-4-yl-cyclohexyloxy)-2H-isoquinolin-1-one], the 50% inhibitory concentration (IC50) was no more than 1000 nM.
As for `N[C@H]1C[C@H](COc2cc3cc[nH]c(=O)c3cc2Cl)C1` [Compound 56, trans-6-(3-Amino-cyclobutylmethoxy)-7-chloro-2H-isoquinolin-1-one], the IC50 is no more than 1000 nM.
The figure for `O=c1[nH]ccc2cc(OC3CCC(N4CCCCC4)CC3)c(Cl)cc12` (mixture of isomers) [Compound 16, 7-Chloro-6-(4-piperidin-1-yl-cyclohexyloxy)-2H-isoquinolin-1-one] is no more than 1000 nM; for `N[C@H]1CCC[C@@H](Oc2cc3cc[nH]c(=O)c3cc2Cl)CC1` (relative stereo) [Compound 48, 7-Chloro-6-(cis-4-Amino-cycloheptyloxy)-2H-isoquinolin-1-one] it is no more than 1000 nM.
The figure for `O=c1[nH]ccc2cc(O[C@H]3CC[C@H](N4CCCC4)CC3)c(Cl)cc12` [Compound 19, 7-Chloro-6-(4-pyrrolidin-1-yl-cyclohexyloxy)-2H-isoquinolin-1-one] is no more than 1000 nM.
In the case of `N[C@@H]1CC[C@H](Oc2ccc3c(=O)[nH]ccc3c2)C1` [Compound 45, 6-((1S,3R)-3-Amino-cyclopentyloxy)-2H-isoquinolin-1-one], the concentration for half-maximal inhibition (IC50) was no more than 1000 nM.
The figure for `CCC[C@]1(N)CCC[C@H](Oc2cc3cc[nH]c(=O)c3cc2Cl)CCC1` (single isomer, unassigned) [Compound 67, 6-(trans-5-amino-5-propyl-cyclooctyloxy)-7-chloro-2H-isoquinolin-1-one] is no more than 1000 nM.
The figure for `NC(=O)C1CCN(C2CCC(Oc3cc4cc[nH]c(=O)c4cc3Cl)CC2)CC1` (mixture of isomers) [Compound 15, 1-[4-(7-Chloro-1-oxo-1,2-dihydro-isoquinolin-6-yloxy)-cyclohexyl]-piperidine-4-carboxylic acid amide] is no more than 1000 nM; for `O=c1[nH]ccc2cc(O[C@H]3CC[C@H](N4CCOCC4)CC3)c(Cl)cc12` [Compound 17, 7-Chloro-6-(4-morpholin-4-yl-cyclohexyloxy)-2H-isoquinolin-1-one] it is no more than 1000 nM; for `O=C(CC1CCNCC1)N[C@H]1CC[C@@H](Oc2cc3cc[nH]c(=O)c3cc2Cl)CC1` [Compound 31, N-[4-(7-Chloro-1-oxo-1,2-dihydro-isoquinolin-6-yloxy)-cis-cyclohexyl]-2-piperidin-4-yl-acetamide] it is no more than 1000 nM.
In the case of `CN1CCN([C@H]2CC[C@H](Oc3cc4cc[nH]c(=O)c4cc3Cl)CC2)CC1` [Compound 21, 7-Chloro-6-[4-(4-methyl-piperazin-1-yl)-cyclohexyloxy]-2H-isoquinolin-1-one], the 50% inhibitory concentration (IC50) is no more than 1000 nM.
For the compound `CCC[C@]1(N)CCC[C@@H](Oc2cc3cc[nH]c(=O)c3cc2Cl)CCC1` (single isomer, unassigned) [Compound 66, 6-(cis-5-Amino-5-propyl-cyclooctyloxy)-7-chloro-2H-isoquinolin-1-one], the IC50 was no more than 1000 nM.
The figure for `NC1CC(Oc2cc3cc[nH]c(=O)c3cc2Cl)C1` (mixture of isomers) [Compound 54, 6-(3-Amino-cyclobutoxy)-7-chloro-2H-isoquinolin-1-one] is no more than 1000 nM; for `Cc1cc2c(=O)[nH]ccc2cc1O[C@H]1CC[C@H](NC(=O)CC2CCNCC2)CC1` [Compound 29, N-[4-(7-Methyl-1-oxo-1,2-dihydro-isoquinolin-6-yloxy)-trans-cyclohexyl]-2-piperidin-4-yl-acetamide] it is 1000 to 10000 nM; for `O=C(O)CN[C@H]1CC[C@@H](Oc2cc3cc[nH]c(=O)c3cc2Cl)CC1` [Compound 24, [4-(7-Chloro-1-oxo-1,2-dihydro-isoquinolin-6-yloxy)-cis-cyclohexylamino]-acetic acid] it is no more than 1000 nM.
The figure for `Cc1cc2c(=O)[nH]ccc2cc1O[C@@H]1CCC[C@H](N)CC1` (relative stereo) [Compound 47, 6-(cis-4-Amino-cycloheptyloxy)-7-methyl-2H-isoquinolin-1-one] is no more than 1000 nM; for `N[C@H]1CC[C@H](Oc2cc3cc[nH]c(=O)c3cc2Cl)C1` [Compound 44, 6-((1S,3S)-3-Amino-cyclopentyloxy)-7-chloro-2H-isoquinolin-1-one] it is no more than 1000 nM.
